This note sets out measurements from patent US11014908B2, “Chemical compounds” (Pfizer Inc., priority 2018, dated 2021).

For data set [1], the target named is T1, purified sickle cell hemoglobin (HbS) (Homo sapiens, UniProt P68871+P69905, E7V).
T1 construct: HbS was obtained from the blood of homozygous S/S patients; from tissue; host or cells: red blood cells of homozygous S/S patients
The experiment in a line: Binding affinity to purified HbS by Surface Plasmon Resonance (SPR). As to conditions: crosslinked biotinylated HbS, 1:1 binding model. The method in brief: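 Patient-derived HbS, purified and crosslinked between beta subunits (Lys82-Lys82), biotinylated and captured on streptavidin sensor at 4000–5000 RU. Running buffer 100 mM potassium phosphate pH 7.5, 1 mM EDTA, 0.1 mg/mL BSA, 1% DMSO; 2 min association, ≥5 min dissociation, ≥4 concentrations; Kd from 1:1 model fit.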

For data set [2], the target named is T2, HbS (Homo sapiens, UniProt P68871+P69905, E7V).
T2 construct: HbS was obtained from the blood of homozygous S/S patients; from tissue; host or cells: red blood cells of homozygous S/S patients
The experiment in a line: 'R'-'T' assay (conversion of oxy HbS to deoxy HbS under deoxygenating conditions). It counts as biochemical. The settings on record: 50% inhibition of HbS 'R'-'T' conversion; 3 uM HbS, <1% O2. A digest of the protocol: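 Oxy HbS diluted to 3 µM in 100 mM potassium phosphate pH 7.4, incubated 1 h at room temperature with compound, then held under <1% O2 for 2 h. Conversion followed by background-corrected 415/430 nm absorbance ratio at 0, 90 and 120 min; percent effect normalized to tucaresol, IC50 from concentration series.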

In data set [3] the target is T3, Hb in human whole blood (Homo sapiens, UniProt P68871+P69905).
T3 construct: measured in human, dog, and mouse whole blood; from tissue; host or cells: human whole blood
Briefly: Whole blood oxygen affinity assay (Hemox analyzer), human blood. The settings on record: 1 mM compound, 1 hour at 25 C, relative to DMSO. The text has this:
Whole Blood Oxygen Affinity Assay
Oxygen affinity is a marker of the ability of Hb to bind and release oxygen in solution. It can be determined in whole blood by measuring the percentage of oxygenated and deoxygenated Hb present at a given oxygen concentration. Oxygen affinity is expressed as the p50, the partial pressure of oxygen at which 50% of the Hb in solution has oxygen bound, or the p20, the partial pressure of oxygen at which 20% of the Hb in solution has oxygen bound.
To determine the effects of compounds of the invention on oxygen affinity the p50 and p20 were measured in human, dog, and mouse whole blood using a Hemeox Analyzer (TCS Scientific). The blood was spiked with a compound of the invention to a concentration of 1 mM and incubated for 1 hour at 25 C with constant rotation. A concentration of 1 mM of compound was selected to approximate 20% hemoglobin occupancy in whole blood. Controls with the same concentration of DMSO, but no compound were incubated in the same way at the same time. Following incubation, samples were immediately assayed for oxygen affinity using the Hemox analyzer. Fifty μL of blood sample was diluted into 5 mL of hemox buffer (TCS Scientific), which had been pre-incubated to 37 C. Following dilution, samples were loaded into the analysis chamber, and fully oxygenated using compressed air. Once samples had reached an pO2 of >150 torr, the measurement was initiated by switching to N2, and the percent oxyhemoglobin as a function of partial pressure was recorded. The p20 and p50 of each sample were recorded from the instrument readout. Data are reported as the percent (%) change relative to DMSO according to the following calculations: […]

Data set [4] can be described thus: Single dose study in sickle Townes mice: exposure in whole blood. It counts as in vivo. As to conditions: male, Townes (sickle cell disease model), mouse, SCD mice, n=3. The method, then: In Vivo Studies Mouse Model
The effect of the compounds of the invention was evaluated in-male sickle Townes mice in a single dose study. Compounds of the invention were administered in amounts set out in Tables 7, 8 and 9 that follow by oral gavage. Control mice received vehicle. Blood (50 μL) was drawn at 0.5 h, 1 h, 4 h, 7 h, 10 h, and 24 h. To measure exposure in whole blood, 20 μL sample was used. Blood drawn at 0.5 h was also evaluated for cell sickling.

Data set [5] relates to Townes SCD mice. Briefly: Chronic dosing study (BID, 15 days) in Townes SCD mice. It counts as in vivo, mouse. The settings on record: 100 mg/kg BID for 15 days, n=4-5, Townes SCD mice, vs vehicle. As to the method: Following 15 days of dosing, blood samples were collected from all animals to run in the Hemeox analyzer to generate oxygen affinity curves, complete blood analysis was performed using Idexx hematology Analyzer, and cell sickling assessed as described before. Soluble Vascular Adhesion Molecule 1 levels (sVCAM1) were assessed by Enzyme linked immunosorbent assay (ELISA) from R&D systems. Results are presented below in Tables 7, 8 and 9.

As to `C[C@H](Oc1cc2cc(F)ccc2nc1N)c1cc(C(=O)O)ccc1-n1cccn1` [Example 4, 3-{(1S)-1-[(2-amino-6-fluoroquinolin-3-yl)oxy]ethyl}-4-(1H-pyrazol-1-yl)benzoic Acid], the Kd (in general, the equilibrium constant for the complex coming apart) in data set [1] worked out at 100 nM. In addition, in data set [2], 4920 nM corresponded to half-maximal inhibition (IC50). For the same compound, in data set [3], the “Reduction in p20 (%) Human” value was determined as 40 ± 4% and the “Reduction in p50 (%) Human” value was found to be 7 ± 3%.

Compound `C[C@H](Oc1cc2cc(C(N)=O)ccc2nc1N)c1ncc(F)cc1-n1cccn1` [Example 27, 2-amino-3-{(1S)-1-[5-fluoro-3-(1H-pyrazol-1-yl)pyridin-2-yl]ethoxy}quinoline-6-carboxamide] displayed a Kd in data set [1] of 183 nM. The IC50 (as a rule, the concentration that inhibits the measured activity by half) in data set [2] worked out at 5360 nM. Also, in data set [3], the “Reduction in p20 (%) Human” value was 70 ± 4% and the “Reduction in p50 (%) Human” value is 26 ± 1%. Besides, the concentration at 0.5 h in data set [4] (single dose 5 mg/kg oral gavage) turned out to be 7.4 µM. The compound also yielded a concentration at 0.5 h in data set [4] (single dose 50 mg/kg oral gavage) of 208 µM. In data set [5], the “Hb, Change (increase)” value amounted to 54.4 ± 8.7% increase; the “Hematocrit, Change (increase)” value is 42.0 ± 12.7% increase; the “RBC sickling, Change (decrease)” value worked out at 19.2 ± 5.4% decrease; the “RBCs, Change (increase)” value was found to be 51.9 ± 8.3% increase. In data set [5], the “Reticulocytes, Change (decrease)” value is listed as 18.4 ± 5.5% decrease; the “p20, Change (decrease)” value is reported as 10.8 ± 3.8% decrease; the “p50, Change (decrease)” value is 7.89 ± 3.36% decrease.

In the case of `C[C@H](Oc1cc2cc(C(N)=O)ccc2nc1N)c1cc2[nH]ncc2cc1-n1cccn1` [Example 61, 2-amino-3-{(1S)-1-[5-(1H-pyrazol-1-yl)-1H-indazol-6-yl]ethoxy}quinoline-6-carboxamide], in data set [1], binding was put at a Kd of 36 nM. In data set [2], this compound registered an IC50 of 5450 nM. In data set [3], the “Reduction in p20 (%) Human” value is reported as 14 ± 8% and the “Reduction in p50 (%) Human” value came to 1 ± 6%.

Turning to `C[C@H](Oc1cc2cc(Br)ccc2nc1N)c1ncccc1-n1cccn1` [Example 28, 6-bromo-3-{(1S)-1-[3-(1H-pyrazol-1-yl)pyridin-2-yl]ethoxy}quinolin-2-amine], the Kd in data set [1] came to 157 nM. The compound further displayed an IC50 in data set [2] of 6560 nM.

As for `C[C@H](Oc1cc2cc(F)ccc2nc1N)c1cc2[nH]cnc2cc1-n1cccn1` [Example 63, 6-fluoro-3-{(1S)-1-[5-(1H-pyrazol-1-yl)-1H-benzimidazol-6-yl]ethoxy}quinolin-2-amine], in data set [1], the Kd worked out at 152 nM. In data set [2], this compound came in with an IC50 of 8360 nM.

`C[C@H](Oc1cc2cc(F)ccc2nc1N)c1cc(C(=O)N[C@H]2C[C@H](O)C2)ccc1-n1cccn1` [Example 14, 3-{(1S)-1-[(2-amino-6-fluoroquinolin-3-yl)oxy]ethyl}-N-(trans-3-hydroxycyclobutyl)-4-(1H-pyrazol-1-yl)benzamide]: the Kd in data set [1] was found to be 41 nM. Besides, the midpoint of inhibition in data set [2], the IC50, lay at 4300 nM.

Take `C[C@H](Oc1cc2cc(F)c(Cl)cc2nc1N)c1ncc(F)cc1-n1cccn1` [Example 31, 7-chloro-6-fluoro-3-{(1S)-1-[5-fluoro-3-(1H-pyrazol-1-yl)pyridin-2-yl]ethoxy}quinolin-2-amine]: the dissociation constant Kd in data set [1] was determined as 69 nM. 4960 nM corresponded to half-maximal inhibition in data set [2] (IC50).
